Data on 20 molecules can be found in patent publication US20240287076A1, “COMPOUNDS FOR TARGETING DEGRADATION OF BRUTON'S TYROSINE KINASE” (BIOGEN MA INC., priority 2021, published 2024).

Some results are limits rather than exact numbers.

This assay deals with T1, BTK (Homo sapiens, UniProt Q06187).
T1 construct: The GM01501.3 cell line endogenously expresses BTK with a HiBiT fusion tag via CRISPR knock-in at its C-terminal region; endogenous in cells; host or cells: GM01501.3 (GM01501 cells engineered by CRISPR knock-in of HiBiT at the BTK locus)
T1 sequence (Q06187 whole entry, the tested form may be a part): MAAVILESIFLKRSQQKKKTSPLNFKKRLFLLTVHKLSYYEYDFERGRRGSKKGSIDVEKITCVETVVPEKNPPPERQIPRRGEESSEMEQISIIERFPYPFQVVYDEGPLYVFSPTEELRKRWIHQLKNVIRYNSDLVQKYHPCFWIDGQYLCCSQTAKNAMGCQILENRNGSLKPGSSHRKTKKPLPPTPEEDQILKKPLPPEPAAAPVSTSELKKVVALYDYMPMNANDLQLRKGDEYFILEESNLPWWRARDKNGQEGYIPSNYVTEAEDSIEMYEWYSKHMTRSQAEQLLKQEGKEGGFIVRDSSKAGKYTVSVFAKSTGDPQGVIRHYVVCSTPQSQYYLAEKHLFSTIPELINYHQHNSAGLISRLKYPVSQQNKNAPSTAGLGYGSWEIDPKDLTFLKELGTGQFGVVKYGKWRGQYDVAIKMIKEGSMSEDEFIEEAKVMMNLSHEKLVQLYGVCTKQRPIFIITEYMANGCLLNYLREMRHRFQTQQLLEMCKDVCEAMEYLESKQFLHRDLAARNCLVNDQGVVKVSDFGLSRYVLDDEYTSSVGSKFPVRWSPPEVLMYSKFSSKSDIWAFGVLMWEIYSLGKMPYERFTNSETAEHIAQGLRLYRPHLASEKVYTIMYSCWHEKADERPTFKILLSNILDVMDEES
The experiment in a line: BTK degradation assay using the HiBiT Method (Nano-Glo HiBiT Lytic Assay, GM01501.3 cells). Format: cell-based. Conditions: HiBiT Degradation on GM01501.3 BTK @ 6 hours. An outline of the steps:
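Degradation read-out: HiBiT luminescence after lytic reagent addition, giving DC50. Compounds dosed from 10 μM in 11 half-log steps (duplicate) onto GM01501.3 cells, whose endogenous BTK carries a C-terminal HiBiT knock-in tag; 6 h exposure, 37 °C, 5% CO2.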
As to `CC(C)(C)c1nc(C(=O)NCc2ccc(-c3ncnn4cc(-c5ccc(CN6CCC(c7ccc(C8CCC(=O)NC8=O)cc7)CC6)cc5)cc34)cc2)no1` (centres unmarked) [Example 40, 5-tert-butyl-N-[[4-[6-[4-[[4-[4-(2,6-dioxo-3-piperidyl)phenyl]-1-piperidyl]methyl]phenyl]pyrrolo[2,1-f][1,2,4]triazin-4-yl]phenyl]methyl]-1,2,4-oxadiazole-3-carboxamide], the DC50 was less than 100 nM.

The molecule `Cc1cc(-c2ncnn3cc(-c4ccc(CN5CCC(c6ccc(NC7CCC(=O)NC7=O)nn6)CC5)cc4)cc23)ccc1CNC(=O)c1noc(C(C)(C)C)n1` (centres unmarked) [Example 31, 5-tert-butyl-N-[[4-[6-[4-[[4-[6-[(2,6-dioxo-3-piperidyl)amino]pyridazin-3-yl]-1-piperidyl]methyl]phenyl]pyrrolo[2,1-f][1,2,4]triazin-4-yl]-2-methyl-phenyl]methyl]-1,2,4-oxadiazole-3-carboxamide] registered a DC50 of less than 100 nM.

Regarding `Cc1cc(-c2ncnn3cc(-c4ccc(CNC5CCc6cc(NC7CCC(=O)NC7=O)ccc6C5)cc4)cc23)ccc1CNC(=O)c1noc(C(C)(C)C)n1` (centres unmarked) [Example 202, 5-(tert-butyl)-N-(4-(6-(4-(((6-((2,6-dioxopiperidin-3-yl)amino)-1,2,3,4-tetrahydronaphthalen-2-yl)amino)methyl)phenyl)pyrrolo[2,1-f][1,2,4]triazin-4-yl)-2-methylbenzyl)-1,2,4-oxadiazole-3-carboxamide], the DC50 was less than 100 nM.

On to `Cc1cc(-c2ccnc3cc(CCCCN4CCC(c5ccc6c(N7CCC(=O)NC7=O)nn(C)c6c5)CC4)nn23)ccc1CNC(=O)c1noc(C(C)(C)C)n1` [Example 300, 5-(tert-butyl)-N-(4-(2-(4-(4-(3-(2,4-dioxotetrahydropyrimidin-1(2H)-yl)-1-methyl-1H-indazol-6-yl)piperidin-1-yl)butyl)pyrazolo[1,5-a]pyrimidin-7-yl)-2-methylbenzyl)-1,2,4-oxadiazole-3-carboxamide], for which the DC50 was less than 100 nM.

In turn, `Cc1cc(-c2ncnn3cc(-c4ccc(CN5CCC(c6ccc(NC7CCC(=O)NC7=O)cc6)CC5)cc4)cc23)ccc1CNC(=O)c1nc(C(C)(C)C)co1` (centres unmarked) [Example 80, 4-tert-butyl-N-[[4-[6-[4-[[4-[4-[(2,6-dioxo-3-piperidyl)amino]phenyl]-1-piperidyl]methyl]phenyl]pyrrolo[2,1-f][1,2,4]triazin-4-yl]-2-methyl-phenyl]methyl]oxazole-2-carboxamide] displayed a DC50 of less than 100 nM.

Molecule `CC(C)(C)c1nc(C(=O)NCc2ccc(-c3ncnn4cc(-c5ccc(CN6CCC(c7ccc(NC8CCC(=O)NC8=O)cn7)CC6)cc5)cc34)cc2F)no1` (centres unmarked) [Example 45, 5-tert-butyl-N-[[4-[6-[4-[[4-[5-[(2,6-dioxo-3-piperidyl)amino]-2-pyridyl]-1-piperidyl]methyl]phenyl]pyrrolo[2,1-f][1,2,4]triazin-4-yl]-2-fluoro-phenyl]methyl]-1,2,4-oxadiazole-3-carboxamide] came in with a half-maximal degradation concentration (DC50) of less than 100 nM.

The molecule `Cc1cc(-c2ncnn3cc(N4CCN(CCCCc5ccc6c(N7CCC(=O)NC7=O)nn(C)c6c5)CC4)cc23)ccc1CNC(=O)c1noc(C(C)(C)C)n1` [Example 297, 5-(tert-butyl)-N-(4-(6-(4-(4-(3-(2,4-dioxotetrahydropyrimidin-1(2H)-yl)-1-methyl-1H-indazol-6-yl)butyl)piperazin-1-yl)pyrrolo[2,1-f][1,2,4]triazin-4-yl)-2-methylbenzyl)-1,2,4-oxadiazole-3-carboxamide] had a DC50 of less than 100 nM.

`Cc1cc(-c2ncnn3cc(-c4ccc(CN5CCC(Oc6ccc(NC7CCC(=O)NC7=O)cc6)CC5)cc4)cc23)ccc1CNC(=O)c1noc(C(C)(C)C)n1` (centres unmarked) [Example 201, 5-(tert-butyl)-N-(4-(6-(4-((4-(4-((2,6-dioxopiperidin-3-yl)amino)phenoxy)piperidin-1-yl)methyl)phenyl)pyrrolo[2,1-f][1,2,4]triazin-4-yl)-2-methylbenzyl)-1,2,4-oxadiazole-3-carboxamide] registered a DC50 of less than 100 nM.

Take `Cc1cc(-c2ncnn3cc(-c4ccc(CN5CCC(c6cnc(NC7CCC(=O)NC7=O)cn6)CC5)cc4)cc23)ccc1CNC(=O)c1noc(C(C)(C)C)n1` (centres unmarked) [Example 12, 5-tert-butyl-N-[[4-[6-[4-[[4-[5-[(2,6-dioxo-3-piperidyl)amino]pyrazin-2-yl]-1-piperidyl]methyl]phenyl]pyrrolo[2,1-f][1,2,4]triazin-4-yl]-2-methyl-phenyl]methyl]-1,2,4-oxadiazole-3-carboxamide]: the half-maximal degradation concentration (DC50) was less than 100 nM.

`CC(C)(C)c1nc(C(=O)NCc2ccc(-c3ncnn4cc(-c5ccc(CN6CCCCC6Cc6ccc(OC7CCC(=O)NC7=O)cc6)cn5)cc34)cc2F)no1` (centres unmarked) [Example 233, 5-(tert-butyl)-N-(4-(6-(5-((2-(4-((2,6-dioxopiperidin-3-yl)oxy)benzyl)piperidin-1-yl)methyl)pyridin-2-yl)pyrrolo [2,1-f][1,2,4]triazin-4-yl)-2-fluorobenzyl)-1,2,4-oxadiazole-3-carboxamide] gave a DC50 of less than 100 nM.

As for `COc1cc(-c2cc3c(-c4ccc(CNC(=O)c5noc(C(C)(C)C)n5)c(C)c4)ncnn3c2)ccc1CN1CCC(c2ccc(NC3CCC(=O)NC3=O)cc2)CC1` (centres unmarked) [Example 16, 5-tert-butyl-N-[[4-[6-[4-[[4-[4-[(2,6-dioxo-3-piperidyl)amino]phenyl]-1-piperidyl]methyl]-3-methoxy-phenyl]pyrrolo[2,1-f][1,2,4]triazin-4-yl]-2-methyl-phenyl]methyl]-1,2,4-oxadiazole-3-carboxamide], the DC50 is less than 100 nM.

For the molecule `CC(C)(C)OC1CN(C(=O)NCc2ccc(-c3ncnn4cc(-c5ccc(CN6CCC(c7ccc(NC8CCC(=O)NC8=O)cn7)CC6)cc5)cc34)cc2F)C1` (centres unmarked) [Example 100, 3-tert-butoxy-N-[[4-[6-[4-[[4-[5-[(2,6-dioxo-3-piperidyl)amino]-2-pyridyl]-1-piperidyl]methyl]phenyl]pyrrolo[2,1-f][1,2,4]triazin-4-yl]-2-fluoro-phenyl]methyl]azetidine-1-carboxamide], the DC50 is less than 100 nM.

`Cc1cc(-c2ncnn3cc(-c4cccc(C(C)CN5CCC(c6ccc(C7CCC(=O)NC7=O)cc6)CC5)c4)cc23)ccc1CNC(=O)c1noc(C(C)(C)C)n1` (centres unmarked) [Example 207, 5-(tert-butyl)-N-(4-(6-(3-(1-(4-(4-(2,6-dioxopiperidin-3-yl)phenyl)piperidin-1-yl)propan-2-yl)phenyl)pyrrolo[2,1-f][1,2,4]triazin-4-yl)-2-methylbenzyl)-1,2,4-oxadiazole-3-carboxamide] gave a 50% degradation concentration (DC50) of less than 100 nM.

`Cn1nc(N2CCC(=O)NC2=O)c2ccc(C3CCN(Cc4ccc(-c5cc6nccc(-c7ccc(CNC(=O)N8CC(OC(C)(C)C)C8)c(F)c7)n6n5)cc4F)CC3)cc21` [Example 167, 3-tert-butoxy-N-[[4-[2-[4-[[4-[3-(2,4-dioxohexahydropyrimidin-1-yl)-1-methyl-indazol-6-yl]-1-piperidyl]methyl]-3-fluoro-phenyl]pyrazolo[1,5-a]pyrimidin-7-yl]-2-fluoro-phenyl]methyl]azetidine-1-carboxamide]: the 50% degradation concentration (DC50) was less than 100 nM.

With `Cc1cc(-c2ncnn3cc(-c4ccc(CN5CCC(c6ccc(N[C@H]7CCC(=O)NC7=O)cc6F)CC5)cc4)cc23)ccc1CNC(=O)c1noc(C(C)(C)C)n1` [Example 25, (S)-5-(tert-butyl)-N-(4-(6-(4-((4-(4-((2,6-dioxopiperidin-3-yl)amino)-2-fluorophenyl)piperidin-1-yl)methyl)phenyl)pyrrolo[2,1-f][1,2,4]triazin-4-yl)-2-methylbenzyl)-1,2,4-oxadiazole-3-carboxamide], the DC50 was less than 100 nM.

For the molecule `CC(C)(C)c1nc(C(=O)NCc2ccc(-c3ncnn4cc(C#CC(F)(F)CN5CCC(c6ccc(C7CCC(=O)NC7=O)cc6)CC5)cc34)cc2F)no1` (centres unmarked) [Example 225, 5-tert-butyl-N-[[4-[6-[4-[4-[4-(2,6-dioxo-3-piperidyl)phenyl]-1-piperidyl]-3,3-difluoro-but-1-ynyl]pyrrolo[2,1-f][1,2,4]triazin-4-yl]-2-fluoro-phenyl]methyl]-1,2,4-oxadiazole-3-carboxamide], the DC50 is more than 1000 nM.

Turning to `Cc1cc(-c2ncnn3cc(-c4ccc(N5CCC(c6ccc(C7CCC(=O)NC7=O)cc6)CC5)cc4)cc23)ccc1CNC(=O)c1noc(C(C)(C)C)n1` (centres unmarked) [Example 146, 5-tert-butyl-N-[[4-[6-[4-[4-[4-(2,6-dioxo-3-piperidyl)phenyl]-1-piperidyl]phenyl]pyrrolo[2,1-f][1,2,4]triazin-4-yl]-2-methyl-phenyl]methyl]-1,2,4-oxadiazole-3-carboxamide], the 50% degradation concentration (DC50) is 100 to 500 nM.

For the molecule `Cc1cc(-c2ncnn3cc(-c4ccc(CN5CCC(c6cnc(NC7CCC(=O)NC7=O)nc6)CC5)cc4)cc23)ccc1CNC(=O)c1noc(C(C)(C)C)n1` (centres unmarked) [Example 30, 5-tert-butyl-N-[[4-[6-[4-[[4-[2-[(2,6-dioxo-3-piperidyl)amino]pyrimidin-5-yl]-1-piperidyl]methyl]phenyl]pyrrolo[2,1-f][1,2,4]triazin-4-yl]-2-methyl-phenyl]methyl]-1,2,4-oxadiazole-3-carboxamide], the DC50 was less than 100 nM.

In turn, `Cc1cc(-c2ncnn3cc(-c4ccc(CN5CCC(c6ccc(OC7CCC(=O)NC7=O)cc6)CC5)cc4)cc23)ccc1CNC(=O)c1noc(C(C)(C)C)n1` (centres unmarked) [Example 19, 5-tert-butyl-N-[[4-[6-[4-[[4-[4-[(2,6-dioxo-3-piperidyl)oxy]phenyl]-1-piperidyl]methyl]phenyl]pyrrolo[2,1-f][1,2,4]triazin-4-yl]-2-methyl-phenyl]methyl]-1,2,4-oxadiazole-3-carboxamide] returned a DC50 of less than 100 nM.

As for `COc1cc(-c2ncnn3cc(-c4ccc(CN5CCC(c6ccc(NC7CCC(=O)NC7=O)cc6)CC5)cc4)cc23)ccc1CNC(=O)c1noc(C(C)(C)C)n1` (centres unmarked) [Example 47, 5-tert-butyl-N-[[4-[6-[4-[[4-[4-[(2,6-dioxo-3-piperidyl)amino]phenyl]-1-piperidyl]methyl]phenyl]pyrrolo[2,1-f][1,2,4]triazin-4-yl]-2-methoxy-phenyl]methyl]-1,2,4-oxadiazole-3-carboxamide], the 50% degradation concentration (DC50) is less than 100 nM.
